Results as given in patent US20260132125A1, “PESTICIDALLY ACTIVE FUSED BICYCLIC HETEROAROMATIC COMPOUNDS” (priority 2022, published 2026).

Tests used:
Assay type in all cases: in vivo
Plutella xylostella = test: Example B5: activity against Plutella xylostella (diamond back moth), artificial diet, eggs; conditions: 192 h, 8 days after infestation, read-out: effect in at least one of the two categories (mortality or growth inhibition)
Method in brief: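 Artificial diet in 24-well plates was treated with aqueous dilutions of DMSO stocks, dried, then infested with Plutella eggs. Mortality and growth inhibition were scored against untreated samples 8 days after infestation; application rate 200 ppm.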

Diabrotica balteata = test: Example B2: activity against Diabrotica balteata (corn root worm), maize sprouts; conditions: 96 h, L2 larvae, 4 days after infestation, read-out: effect in at least one of the two categories (mortality or growth inhibition)
Method in brief: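 Maize sprouts on agar were sprayed with aqueous test solutions made from 10′000 ppm DMSO stocks, dried, then infested with 6–10 L2 larvae per well. Mortality and growth inhibition were scored against untreated samples 4 days after infestation, at an application rate of 200 ppm.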

Chilo suppressalis = test: Example B1: activity against Chilo suppressalis (striped rice stemborer), artificial diet; conditions: 144 h, 200 ppm, L2 larvae, 6 days after infestation, read-out: control (at least one of mortality, anti-feedant effect, growth inhibition)
Method in brief: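 First, artificial diet was treated with aqueous solutions prepared from 10'000 ppm DMSO stocks; second, after drying, L2 larvae (6-8/well) were added; third, effects were assessed at 6 days against untreated controls, counting control when any of three categories was higher.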

Myzus persicae [1] = test: Example B7b: Myzus persicae feeding/contact activity, eggplant leaf discs; conditions: foliar, 144 h, mixed ages, 6 days after infestation
Description: Eggplant leaf discs were placed onto agar in a 24-well microtiter plate and sprayed with aqueous test solutions prepared from 10′000 ppm DMSO stock solutions. After drying, the leaf discs were infested with an aphid population of mixed ages. The samples were assessed for mortality 6 days after infestation.

Spodoptera littoralis = test: Example B6: activity against Spodoptera littoralis (Egyptian cotton leaf worm), cotton leaf discs; conditions: foliar, 72 h, 200 ppm, L1 larvae, 3 days after infestation, read-out: control (at least one of mortality, anti-feedant effect, growth inhibition)
Method in brief: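 Leaf discs on agar sprayed with aqueous dilutions of 10′000 ppm DMSO stocks, dried, then infested with five L1 larvae. Mortality, anti-feeding and growth inhibition scored versus untreated 3 days after infestation; control given when any category exceeds untreated.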

Euschistus heros = test: Example B3: activity against Euschistus heros (neotropical brown stink bug), soybean leaves; conditions: 120 h, N2 nymphs, 5 days after infestation, read-out: effect in at least one of the two categories (mortality or growth inhibition)
Description: Soybean leaves on agar in 24-well microtiter plates were sprayed with aqueous test solutions prepared from 10′000 ppm DMSO stock solutions. After drying the leaves were infested with N2 nymphs. The samples were assessed for mortality and growth inhibition in comparison to untreated samples 5 days after infestation. The following compounds gave an effect of at least 80% in at least one of the two categories (mortality or growth inhibition) at an application rate of 200 ppm: […]

Myzus persicae [2] = test: Example B4: activity against Myzus persicae (green peach aphid), intrinsic activity; conditions: 120 h, test rate 12 ppm, 5 days after infestation
Method in brief: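 Compounds from 10′000 ppm DMSO stocks were mixed into sucrose solution in 24-well plates sealed with Parafilm. Aphid-infested pea seedlings were set on the membrane and the plate inverted so aphids fed through it. Mortality scored 5 days after infestation.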

Pseudoplusia includens = test: Example B9: Pseudoplusia includens (soybean looper), larvicide, feeding/contact, soybean plants; conditions: Chrysodeixis includens, 120 h; 50 ppm; L2 larvae; 5 days after infestation; read-out: effect in at least one of the two categories (mortality or growth inhibition)
Description: Soybean plants were treated in a spray chamber, cut off and placed into petri dishes containing wet filter paper. 1d after application leaves were infested with 5 L2 larvae and covered with a fabric filter and plastic lids. 5 days after infestation the samples were assessed for mortality and growth inhibition. The following compounds gave an effect of at least 80% in at least one of the two categories (mortality or growth inhibition) at an application rate of 50 ppm: […]

C[C@H](Nc1ncnc2c(Br)cc(Br)cc12)c1ncnn1-c1cc(C#N)ncn1 [Compound P41, 6-[5-[(1S)-1-[(6,8-dibromoquinazolin-4-yl)amino]ethyl]-1,2,4-triazol-1-yl]pyrimidine-4-carbonitrile]
≥ 80%: percent effect (mortality or growth inhibition) at 200 ppm (Plutella xylostella) | percent effect (mortality or growth inhibition) at 200 ppm (Diabrotica balteata) | percent control (mortality, anti-feedant effect or growth inhibition) at 200 ppm (Chilo suppressalis) | mortality at 200 ppm (Myzus persicae [1]) | percent control (mortality, anti-feedant effect or growth inhibition) at 200 ppm (Spodoptera littoralis)

CNC(=O)c1cc(-n2ncnc2[C@H](C)Nc2ncnc3c(S(=O)(=O)C(F)(F)F)cc(Cl)cc23)ncn1 [Compound P60, 6-[5-[(1S)-1-[[6-chloro-8-(trifluoromethylsulfonyl)quinazolin-4-yl]amino]ethyl]-1,2,4-triazol-1-yl]-N-methyl-pyrimidine-4-carboxamide]
≥ 80%: percent effect (mortality or growth inhibition) at 200 ppm (Plutella xylostella) | percent effect (mortality or growth inhibition) at 200 ppm (Diabrotica balteata) | percent effect (mortality or growth inhibition) at 200 ppm (Euschistus heros) | percent control (mortality, anti-feedant effect or growth inhibition) at 200 ppm (Chilo suppressalis) | mortality at 12 ppm (Myzus persicae [2]) | percent control (mortality, anti-feedant effect or growth inhibition) at 200 ppm (Spodoptera littoralis) | percent effect (mortality or growth inhibition) at 50 ppm (Pseudoplusia includens)

C[C@@H](c1ncnn1-c1cc(C(N)=O)ncn1)N(C)c1ncnc2c(I)cc(Cl)cc12 [Compound P47, 6-[5-[(1S)-1-[(6-chloro-8-iodo-quinazolin-4-yl)-methyl-amino]ethyl]-1,2,4-triazol-1-yl]pyrimidine-4-carboxamide]
≥ 80%: percent effect (mortality or growth inhibition) at 200 ppm (Plutella xylostella) | percent effect (mortality or growth inhibition) at 200 ppm (Diabrotica balteata) | percent effect (mortality or growth inhibition) at 200 ppm (Euschistus heros) | percent control (mortality, anti-feedant effect or growth inhibition) at 200 ppm (Chilo suppressalis) | mortality at 12 ppm (Myzus persicae [2]) | percent control (mortality, anti-feedant effect or growth inhibition) at 200 ppm (Spodoptera littoralis) | percent effect (mortality or growth inhibition) at 50 ppm (Pseudoplusia includens)

C[C@@H](c1ncnn1-c1cc(C(=O)N(C)C)ncn1)N(C)c1ncnc2c(C(F)(F)F)cc(Cl)cc12 [Compound P82, 6-[5-[(1S)-1-[[6-chloro-8-(trifluoromethyl)quinazolin-4-yl]-methyl-amino]ethyl]-1,2,4-triazol-1-yl]-N,N-dimethyl-pyrimidine-4-carboxamide]
≥ 80%: percent effect (mortality or growth inhibition) at 200 ppm (Plutella xylostella) | percent effect (mortality or growth inhibition) at 200 ppm (Diabrotica balteata) | mortality at 200 ppm (Myzus persicae [1]) | mortality at 12 ppm (Myzus persicae [2]) | percent control (mortality, anti-feedant effect or growth inhibition) at 200 ppm (Spodoptera littoralis)

CNC(=O)c1cc(-n2ncnc2[C@H](C)N(C)c2ncnc3c(Cl)cc(C(F)(F)F)cc23)ncn1 [Compound P15, 6-[5-[(1S)-1-[[8-chloro-6-(trifluoromethyl)quinazolin-4-yl]-methyl-amino]ethyl]-1,2,4-triazol-1-yl]-N-methyl-pyrimidine-4-carboxamide]
≥ 80%: percent effect (mortality or growth inhibition) at 200 ppm (Plutella xylostella) | percent effect (mortality or growth inhibition) at 200 ppm (Diabrotica balteata) | percent effect (mortality or growth inhibition) at 200 ppm (Euschistus heros) | percent control (mortality, anti-feedant effect or growth inhibition) at 200 ppm (Chilo suppressalis) | mortality at 12 ppm (Myzus persicae [2]) | percent control (mortality, anti-feedant effect or growth inhibition) at 200 ppm (Spodoptera littoralis) | percent effect (mortality or growth inhibition) at 50 ppm (Pseudoplusia includens)

C[C@H](Nc1ncnc2c(Cl)cc(C(F)(F)F)cc12)c1ncnn1-c1ncc(C(N)=O)s1 [Compound P35, 2-[5-[(1S)-1-[[8-chloro-6-(trifluoromethyl)quinazolin-4-yl]amino]ethyl]-1,2,4-triazol-1-yl]thiazole-5-carboxamide]
≥ 80%: percent effect (mortality or growth inhibition) at 200 ppm (Plutella xylostella) | percent effect (mortality or growth inhibition) at 200 ppm (Diabrotica balteata) | percent effect (mortality or growth inhibition) at 200 ppm (Euschistus heros) | percent control (mortality, anti-feedant effect or growth inhibition) at 200 ppm (Chilo suppressalis) | mortality at 12 ppm (Myzus persicae [2]) | percent control (mortality, anti-feedant effect or growth inhibition) at 200 ppm (Spodoptera littoralis)
